What was measured:
Barnyardgrass = assay: Test C postemergence: barnyardgrass; type: in vivo, Echinochloa crus-galli; details: 125 g ai/ha, scale 0 to 100, 0 no effect, 100 complete control
Source text: Seeds of plant species selected from blackgrass (Alopecurus myosuroides), bromegrass, downy (downy bromegrass, Bromus tectorum), foxtail, green (green foxtail, Setaria viridis), ryegrass, Italian (Italian ryegrass, Lolium multiflorum), winter wheat (Triticum aestivum), wild oat (Avena fatua), galium (catchweed bedstraw, Galium aparine), bermudagrass (Cynodon dactylon), surinam grass (Brachiaria decumbens), cocklebur (common cocklebur, Xanthium strumarium), corn (Zea mays), large crabgrass (Digitaria sanguinalis), woolly cupgrass (Eriochloa villosa), foxtail, giant (giant foxtail, Setaria faberii), goosegrass (Eleusine indica), johnsongrass (Sorghum halepense), kochia (Kochia scoparia), lambsquarters (Chenopodium album), morningglory (Ipomoea coccinea), nightshade (eastern black nightshade, Solanum ptycanthum), nutsedge, yellow (yellow nutsedge, Cyperus esculentus), pigweed (Amaranthus retroflexus), ragweed (common ragweed, Ambrosia elation), soybean (Glycine max), common (oilseed) sunflower (Helianthus annuus), Russian thistle (Salsola kali) and velvetleaf (Abutilon theophrasti) were planted into a blend of loam soil and sand and treated preemergence with test chemicals formulated in a non-phytotoxic solvent mixture which included a surfactant.
At the same time, plants selected from these crop and weed species and also barley (winter barley, Hordeum vulgare), canarygrass (Phalaris minor), chickweed (common chickweed, Stellaria media) windgrass (Apera spica-venti) and deadnettle (henbit deadnettle, Lamium amplexicaule) were planted in pots containing Redi-Earth® planting medium (Scotts Company, 14111 Scottslawn Road, Marysville, Ohio 43041) comprising spaghnum peat moss, vermiculite, wetting agent and starter nutrients and treated with postemergence applications of test chemicals formulated in the same manner. Plants ranged in height from 2 to 18 cm (1- to 4-leaf stage) for postemergence treatments.
Treated plants and controls were maintained in a greenhouse for 13 to 15 days, after which time all species were compared to controls and visually evaluated. Plant response ratings, summarized in Table C, are based on a scale of 0 to 100 where 0 is no effect and 100 is complete control. A dash (-) response means no test result.

Waterhemp [1] = assay: Test C pre-/postemergence: waterhemp; type: in vivo; details: Postemergence, 31 g ai/ha; scale 0 to 100 (0 no effect, 100 complete control)
Oilseed Rape [2] = assay: Test C preemergence: oilseed rape; type: in vivo, Brassica napus; details: 125 g ai/ha, scale 0 to 100, 0 no effect, 100 complete control
[3] = system: barnyardgrass (Echinochloa crus-galli); assay: Test C pre-/postemergence: barnyardgrass; type: in vivo; details: Preemergence, 250 g ai/ha; scale 0 to 100, 0 no effect, 100 complete control
Waterhemp [4] = assay: Test C postemergence: waterhemp; type: in vivo; details: 62 g ai/ha, scale 0 to 100 (0 no effect, 100 complete control)
In short: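 Seedlings are raised in pots of peat-based medium to 2–18 cm (1- to 4-leaf stage). The formulated compound is then applied postemergence. Plants stay in the greenhouse for 13 to 15 days and are rated visually against controls, where 0 means no effect and 100 complete control.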

Waterhemp [5] = assay: Test C postemergence: waterhemp; type: in vivo, Amaranthus rudis
Oilseed Rape [6] = assay: Test C postemergence: oilseed rape; type: in vivo, Brassica napus
Oilseed Rape [7] = assay: Test C preemergence: oilseed rape; type: in vivo; details: 62 g ai/ha, scale of 0 to 100, 0 is no effect, 100 is complete control
[8] = 125 g ai/ha, scale 0 to 100, 0 no effect, 100 complete control
[9] = 250 g ai/ha, scale 0 to 100 (0 no effect, 100 complete control)

Row | SMILES | Plant response rating, Barnyardgrass (Barnyardgrass) | Plant response rating, Waterhemp (Waterhemp [1]) | Plant response rating, Oilseed Rape (Oilseed Rape [2]) | Plant response rating, Barnyardgrass [3] | Plant response rating, Waterhemp (Waterhemp [4]) | Plant response rating, Waterhemp (Waterhemp [5]; [8]) | Plant response rating, Waterhemp (Waterhemp [5]; [9]) | Plant response rating, Oilseed Rape (Oilseed Rape [6]; [8]) | Plant response rating, Oilseed Rape (Oilseed Rape [6]; [9]) | Plant response rating, Oilseed Rape (Oilseed Rape [7])
1 | CCc1nn(-c2ccc(C(F)(F)F)cc2)nc1Oc1ccnc(C(F)(F)F)c1 [Compound 169] | 75 | 75 | 100 | 100 | 80 | 80 | 95 | 40 | 60 | 98
2 | CCCc1nn(-c2ccc(C(F)(F)F)cc2)nc1Oc1ccnc(C(F)(F)F)c1 [Compound 170] | 85 | 85 | 100 | 100 | 98 | 98 | 100 | 50 | 85 | 95
3 | CCc1nn(-c2ccc(F)c(F)c2)nc1Oc1ccnc(C(F)(F)F)c1 [Compound 171] | 60 | 70 | 50 | 98 | 75 | 75 | 98 | 30 | 30 | 50
4 | CCCc1nn(-c2ccc(F)c(F)c2)nc1Oc1ccnc(C(F)(F)F)c1 [Compound 172] | 85 | 90 | 98 | 100 | 95 | 98 | 98 | 90 | 95 | 90
5 | CCCc1nn(-c2ccc(F)cc2F)nc1Oc1ccnc(C(F)(F)F)c1 [Compound 179] | 65 | 80 | 100 | 100 | 90 | 95 | 95 | 90 | 90 | 98
6 | CCc1nn(-c2ccc(C(F)(F)F)c(F)c2)nc1Oc1ccnc(C(F)(F)F)c1 [Compound 183] | 80 | 85 | 100 | 100 | 100 | 100 | 100 | 25 | 50 | 80
7 | CCOc1nn(-c2ccc(Cl)cc2)nc1Cc1ccnc(C(F)(F)F)c1 [Compound 188] | 98 | 70 | 100 | 100 | 100 | 100 | 100 | 90 | 95 | 70
